Patent publication US9243247B2, “Composition for promoting apoptosis or inhibiting cell growth, comprising epstein-barr virus microrna” (Catholic University Industry Academic Cooperation Foundation, priority 2011, dated 2016)

Experiments:
Assay type in all cases: cell-based
AGS cell strain [1] = test: Effect on cell cycle (propidium iodide staining, FACS, sub G1); settings: mimic 10 nM, 10 uM 5-FU 24 h after transfection, then 48 hours, relative to scrambled control (=1)
In short: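 AGS gastric cells (EBV-negative), 2×10^5 per well, were transfected with synthetic miRNA (10 nM). DNA was stained with propidium iodide, and the cell-cycle-altered fraction was measured by FACS.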

AGS cell strain [2] = test: Measurement of apoptosis (Annexin V staining, FACS); settings: for Relative Apoptotic cell: AGS, mimic 10 nM, 10 uM 5-FU 24 h after transfection, then 48 hours, Annexin V, relative to scrambled control (=1), n=9; for effect on cell growth and apoptosis (summary statement): mimics transfected to AGS, tumor cell strain not infected with EBV
In short: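 EBV-negative AGS cells (2×10^5/well) were transfected with 10 nM synthetic miRNA. Twenty-four hours later they received 10 uM 5-FU for 48 h at 37 °C. The apoptotic cell ratio was measured by PE Annexin V staining and FACS.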

AGS cell strain [3] = test: Cell growth test (CCK-8 assay) after transfection of BART miRNA mimics; settings: mimic 10 nM, 72 hours after transfection, relative to scrambled control (=1), n=9
In short: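 EBV-negative AGS gastric cells in RPMI1640 with 10% FBS, seeded 1×10^3 cells/well and transfected with synthetic mature BART miRNA mimics (10 nM; dose series 1, 3, 10, 30 nM) via G-fectin. Growth read by CCK-8 after 72 h (or over time), 2 h at 37 °C, absorbance measured.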

Substance	Relative Sub G1 (AGS cell strain [1])	Relative Sub G1 (AGS cell strain [1]; listed as 20-5p)	Relative Apoptotic cell (AGS cell strain [2])	Relative Cell Growth (AGS cell strain [3])	Relative Apoptotic cell (AGS cell strain [2]; listed as 21-3p)	effect on cell growth and apoptosis (summary statement) (AGS cell strain [2])	Relative Apoptotic cell (AGS cell strain [2]; listed as 22-5p)
BART20-5p: EBV BART miRNA mimic, double stranded RNA; sense SEQ NO: 73, antisense SEQ NO: 74 (sense UAGCAGGCAUGUCUUCAUUCC; antisense GGAAUGAAGACAUGCCUGCUA; chemistry not given here)	1.379	increased	1.075	1.245			
BART21-3p: EBV BART miRNA mimic, double stranded RNA; sense SEQ NO: 35, antisense SEQ NO: 36 (sense CUAGUUGUGCCCACUGGUGUUU; antisense AAACACCAGUGGGCACAACUAG; chemistry not given here)	0.965		1.155	1.215	significantly higher	inhibit cell growth and promote apoptosis	
BART21-5p: EBV BART miRNA mimic, double stranded RNA; sense SEQ NO: 33, antisense SEQ NO: 34 (sense UCACUAGUGAAGGCAACUAAC; antisense GUUAGUUGCCUUCACUAGUGA; chemistry not given here)	1.087		0.9207	1.304			
BART22-3p: EBV BART miRNA mimic, double stranded RNA; sense SEQ NO: 55, antisense SEQ NO: 56 (sense UUACAAAGUCAUGGUCUAGUAGU; antisense ACUACUAGACCAUGACUUUGUAA; chemistry not given here)	1.054		1.106	1.495			
BART22-5p: EBV BART miRNA mimic, double stranded RNA; sense SEQ NO: 53, antisense SEQ NO: 54 (sense UGCUAGACCCUGGAGUUGAACC; antisense GGUUCAACUCCAGGGUCUAGCA; chemistry not given here)	0.9654		1.197	1.529		inhibit cell growth and promote apoptosis	significantly higher
